The results in this text go back to a melting point compilation (Tetko et al.).

The structures appear in SMILES notation.

For this data set the following is noted: a range is the spread between reports.

In turn, `CC(=O)Nc1c(C)cccc1C` returned a melting point of 181 to 183 °C.

For `Nc1ccc2c(c1)CCC2`, the melting point lay within 35 to 37.5 °C. Compound `O=P(c1ccccc1)(c1ccccc1)c1ccccc1` yielded a melting point of 156 °C. The value for `CC1=c2ccccc2=NC1c1ccccc1` (centres undefined) was 91 to 91.5 °C. The value for `Cc1cc(Cl)ccc1O` was 47 to 51 °C; that for `O=C(O)CCCCCCCCCCC(=O)O` was 128 to 129 °C; that for `ICCCCI` was 5.8 to 6 °C. The value for `CC(C)(N)CO` was 25.5 to 30 °C; that for `COC(C)(C)C` was -109 °C. Regarding `NCCN`, the melting point lay within 8.5 to 11.1 °C.

Consider `COc1ccc2c(c1)CCCC2=O`, for which the melting point was in the range of 78 to 79 °C. Next, `CC1CCC1`: -162 °C; `Nc1ccc(C(=O)c2ccccc2)cc1`: 122 to 123 °C. Next, `c1ccc(CSCc2ccccc2)cc1`: 49 to 49.5 °C. The value for `CCOC(=O)CNc1ccccc1` was 57 to 58 °C; that for `c1ccc2c(c1)Cc1ccccc1O2` was 100 to 102 °C.

Compound `Oc1ccccc1-c1ccccc1` gave a melting point of 56 to 60 °C.

`CCC(C)(CO)CO` registered a melting point of 40.3 to 44 °C.

For `CCCCCCCCCS`, the melting point is -20.1 to -20 °C. The value for `CCCCOc1ccc(C(=O)O)cc1` was 147 to 148 °C; that for `N#Cc1ccccc1C=O` was 104 to 108 °C; that for `C=CCCCCCCCCCCCCC` was -4 to -2.8 °C. Next, `O=C1OC(c2ccc(O)cc2)(c2ccc(O)cc2)c2ccccc21`: 260 to 262 °C; `NC(=O)c1ccc(-c2ccccc2)cc1`: 223 to 228 °C; `NCCCCCCCN`: 28 to 28.9 °C.

`CC(=O)c1cccc(C#N)c1` registered a melting point of 98 to 99 °C. In turn, `Oc1cc(O)c2ccccc2c1` returned a melting point of 124 to 125 °C. Next, `Clc1ccc(-c2ccc(Cl)cc2)cc1`: 149 °C; `NCCCCCCO`: 56 to 57 °C; `C1=CCCC1`: -135 °C.

On to `CC#CC#CC`, for which the melting point lay in the range of 67 to 67.8 °C. The value for `CN1CCC(O)CC1` was 28 to 29 °C; that for `CCc1cccnc1` was -77 to -76.9 °C. The value for `CN(C)c1cccc(O)c1` was 82 to 86 °C; that for `Nc1ccc2ccc3cccc4ccc1c2c34` was 116 to 118 °C; that for `Nc1cccc(N)c1` was 63 to 65 °C. Next, `O=C(O)Cc1ccc(-c2ccccc2)cc1`: 160 to 161 °C. The compound `N#Cc1ccccc1N` registered a melting point of 47 to 51 °C. The value for `Cc1ccc(S)c(S)c1` was 29 to 31 °C.
